Tests used:
[1] = tested on: Taxol-induced mechanical allodynia; experiment: Taxol-induced neuropathic pain rat model, 50% paw withdrawal threshold (up-down method); assay type: in vivo, Sprague-Dawley rats; conditions: rats, 50 mg/kg p.o. in 1% methylcellulose (positive control)
Description: Sprague-Dawley male rats with 150-160 grams of body weight were used in the studies presented herein. Rats were trained in the enclosure one hour per day in the morning for a one week period prior to obtaining the baseline response. Whereas the mouse studies assessed percentage of response, the rat studies determined 50% of the paw withdrawal threshold, also called the up-down method as developed by Chung and colleagues. In order to obtain consistent data, naïve rats with paw withdrawal threshold no less than 4 grams were included for further studies. Taxol at a dose of 1 mg/kg (body weight) was administered daily to rats intraperitoneally. As observed in mice, the rats treated with Taxol daily developed stable mechanical allodynia on day 9 and thereafter. On day 13 and day 14 of Taxol induction, the rats pain behavior in term of 50% of paw withdrawal threshold was measured. Only those rats with paw withdrawal threshold measurements no greater than 7 grams for two consecutive days were included for drug testing. Generally speaking, the mechanical allodynia in Taxol treated rats fell in the range of 1-4 gram of paw withdrawal threshold.
1 ml per kg of body weight of either 50 mg/ml or 20 mg/ml of Compound A was administered to rats via oral gavage feeding (p.o.), to yield a dose of either 50 mg/Kg (body weight) or 20 mg/Kg (body weight). The same corresponding volume of 1% methylcellulose was used as vehicle control. 34 male Sprague-Dawely rats were employed for the study. The baseline paw withdrawal threshold (grams of force applied to the plantar area of the right hind paw) and neuropathic pain induction with daily intraperitoneal administration of 1 mg/kg (body weight) was performed as indicated in the previous section. The Taxol treatment was continued for 15 days until the pain threshold remained relatively stable. Animals with baseline greater than 4 grams and with threshold […] post induction were included in the drug testing. 27 rats met the criteria for the next step studies and were randomly assigned into four groups. Group 1 consisting of 7 rats was given 1% methylcellulose as vehicle control group, 1 ml of vehicle per kilograms of body weight was administered to animal via p.o.; group 2 with 6 animals was dosed at 20 mg/kg (body weight) of Compound A via oral gavage feeding (p.o.); group 3 with 7 rats was dosed at 50 mg/kg of Compound A, and the fourth group with 7 rats received Gabapentine at 50 mg/kg via p.o. in the same vehicle as a positive control group. Those rats were habituated in the enclosure and 50% of paw withdrawal thresholds (grams of force) were measured using a set of von Frey filaments, as described in the previous section, at time points of 1, 2, 3, 6, and 24 hours postdosing in a blinded fashion. The tester had no knowledge of which animals received drug or vehicle. It was noted that rats tested were very sleepy in the late afternoon (for 6 hour postdosing measurement), thus the data would not be reliable for 6-hour postdosing time points. […] After finishing the 24 hour postdosing measurement, the paw withdrawal threshold of each animal was calculated and data was analyzed.

[2] = PK parameter estimates, 30 mg/kg po in 1% methyl cellulose; assay type: in vivo, rats; conditions: rat, plasma, rats, 30 mg/kg po in 1% methyl cellulose, n = 3
Description: The time course of plasma concentration of compound N is depicted in FIG. 1 as well.

Question: With `NCC1(CC(=O)O)CCCCC1` [Gabapentine, reference compound] as the molecule, how does the “time of peak analgesic effect postdosing” value [1] read?
Answer: 3 to 6 h

Question: What does the source list for `CC(C)(C)NC(=O)c1ccc(N)cc1` [Compound N, N-tert-butyl-4-aminobenzamide]?
Answer: AUC(0-inf) [2]: 1030 µg·h/mL; Cmax [2]: 5400 ng/mL; Tmax [2]: 0.5 h; half-life ([2]; read-out: Elim.t1/2 (converted)): 355 h; melting point: 125 to 127 °C

Question: With `CC(C)(C)NC(=O)c1cccc([N+](=O)[O-])c1` [Compound G, N-tert-butyl-3-nitrobenzamide] as the molecule, how does the melting point read?
Answer: 123 to 125 °C

Question: For `CC(=O)Nc1cccc(C(=O)NC(C)(C)C)c1` [Compound D, N-tert-butyl-3-acetamidobenzamide], which melting point is on record?
Answer: 194 to 195 °C
